Results on 21 molecules are retold here after patent US8426406B2, “Glucocorticoid receptor agonist comprising 2,2,4-trimethyl-6-phenyl-1,2-dihydroquinoline derivatives having substituted oxy group” (Santen Pharmaceutical Co., Ltd., priority 2008, dated 2013).

This assay deals with IL-6 production induced by lipopolysaccharide (LPS) in human corneal epithelial cells. Briefly: Evaluation test for GR agonist activity: inhibition of LPS-induced IL-6 production in human corneal epithelial cells (HCE-T). It counts as cell-based. Particulars: Corneal epithelial cell, 10 μL of 100 μM test compound solution per well, 4 hours incubation, efficacy relative to DEX. The procedure:
In order to evaluate a GR agonist activity of the present compound, the inhibitory effects on the IL-6 production induced by lipopolysaccharide (LPS) in human corneal epithelial cells. IL-6 levels in the conditioned medium were measured using the HTRF human IL-6 Kit (boehringer-Ingelheim, Cat No. 62IL6PEB), and the procedure was carried out according to the protocol attached to the kit. Hereinafter, the specific method will be described.
LPS solution: After LPS was dissolved in phosphate buffer solution (hereinafter referred to as PBS(−)), the resulting solution was diluted with 10% FBS-DMEM/F12 medium, whereby a 1 μg/mL LPS solution was prepared.
After a test compound was dissolved in dimethylsulfoxide (hereinafter referred to as DMSO), the resulting solution was diluted with 10% FBS-DMEM/F12 medium, whereby a 100 μM test compound solution was prepared. A 100 μM DEX solution was prepared by the same method, and the inhibitory ratio of IL-6 production of DEX was evaluated to use for calculating efficacy (% DEX).
Used cell: SV40-immortalized human corneal epithelial cells (HCE-T) (RIKEN)
1) HCE-T cells were harvested, and seeded at 2.0×10^4 cells/0.1 mL/well in a 96-well plate.
2) After incubation overnight, the medium was removed and a 80 μL of new 10% FBS-DMEM/Ham's F12 medium was added into each well.
3) A 10 μL of test compounds solution was added into each well.
4) A 10 μL of LPS solution was added into each well.
5) As a negative control, a 10 μL of 10% FBS-DMEM/Ham's F12 medium was added into each well instead of a test compound solution and a LPS solution.
6) As a positive control, a 10 μL of 10% FBS-DMEM/Ham's F12 medium containing 1% DMSO was added into each well instead of a test compound solution.
7) After 4 hours incubation, supernatants were collected and IL-6 levels in the supernatants were quantitated using the HTRF human IL-6 Kit.
8) The inhibition ratio of IL-6 production (%) was calculated according to the following equation.
The inhibition ratio of IL-6 production (%) was calculated according to the following equation. The inhibition ratio of IL-6 production(%)=100×[1−(IL-6 level in each group−mean value of IL-6 level in negative control)/(mean value of IL-6 level in positive control−mean value of IL-6 level in negative control)](%)
Furthermore, the inhibition ratio of IL-6 production (efficacy (% DEX)) was also calculated according to the following equation. Efficacy(% DEX)=100×{(mean value of IL-6 inhibition in compound-treated group)/(mean value of IL-6 inhibition in DEX-treated group)}(%) (Result and Discussion)

With `COc1cc(OC(=O)Nc2ccc(Cl)cc2)ccc1-c1ccc2c(c1COC(=O)c1ccc(C)s1)C(C)=CC(C)(C)N2` [Compound 6-27, 6-[4-(4-Chlorophenylaminocarbonyloxy)-2-methoxyphenyl]-5-(5-methylthiophen-2-ylcarbonyloxymethyl)-2,2,4-trimethyl-1,2-dihydroquinoline], the Emax is 94%. Then `COc1cc(OC(=O)c2occc2C)ccc1-c1ccc2c(c1CNc1cc(F)ccc1C)C(C)=CC(C)(C)N2` [Compound 1-126, 5-(5-Fluoro-2-methylphenylaminomethyl)-6-[2-methoxy-4-(3-methylfuran-2-ylcarbonyloxy)phenyl]-2,2,4-trimethyl-1,2-dihydroquinoline], with 81%. Then `COc1ccccc1NCc1c(-c2ccc(OC(=O)c3cccnc3OC)cc2OC)ccc2c1C(C)=CC(C)(C)N2` [Compound 1-117, 6-[2-Methoxy-4-(2-methoxypyridin-3-ylcarbonyloxy)phenyl]-5-(2-methoxyphenylaminomethyl)-2,2,4-trimethyl-1,2-dihydroquinoline], with 95%. The molecule `CCS(=O)(=O)Oc1ccc(-c2ccc3c(c2COc2cc([N+](=O)[O-])ccc2C)C(C)=CC(C)(C)N3)c(OC)c1` [Compound 4-11, 6-(4-Ethylsulfonyloxy-2-methoxyphenyl)-5-(2-methyl-5-nitrophenoxymethyl)-2,2,4-trimethyl-1,2-dihydroquinoline] came in with an Emax of 75%. Then `COc1cc(OC(=O)c2cscn2)ccc1-c1ccc2c(c1COc1cc(F)ccc1C)C(C)=CC(C)(C)N2` [Compound 1-40, 5-(5-Fluoro-2-methylphenoxymethyl)-6-[2-methoxy-4-(thiazol-4-ylcarbonyloxy)phenyl]-2,2,4-trimethyl-1,2-dihydroquinoline], with 75%; and `COc1ccccc1NCc1c(-c2ccc(OC(=O)c3ccccc3Cl)cc2OC)ccc2c1C(C)=CC(C)(C)N2` [Compound 1-99, 6-[4-(2-Chlorobenzoyloxy)-2-methoxyphenyl]-5-(2-methoxyphenylaminomethyl)-2,2,4-trimethyl-1,2-dihydroquinoline], with 89%. In turn, `COc1cc(OC(=O)c2cccnc2C)ccc1-c1ccc2c(c1CNc1cc(F)ccc1C)C(C)=CC(C)(C)N2` [Compound 1-122, 5-(5-Fluoro-2-methylphenylaminomethyl)-6-[2-methoxy-4-(2-methylpyridin-3-ylcarbonyloxy)phenyl]-2,2,4-trimethyl-1,2-dihydroquinoline] came in with an Emax of 89%. Then `COc1cc(OC(=O)c2ccnc(Cl)c2)ccc1-c1ccc2c(c1COc1cc(F)ccc1C)C(C)=CC(C)(C)N2` [Compound 1-68, 6-[4-(2-Chloropyridin-4-ylcarbonyloxy)-2-methoxyphenyl]-5-(5-fluoro-2-methylphenoxymethyl)-2,2,4-trimethyl-1,2-dihydroquinoline], with 72%; and `COc1cc(OC(=O)c2cccnc2)ccc1-c1ccc2c(c1COc1cc(F)ccc1C)C(C)=CC(C)(C)N2` [Compound 1-8, 5-(5-Fluoro-2-methylphenoxymethyl)-6-[2-methoxy-4-(pyridin-3-ylcarbonyloxy)phenyl]-2,2,4-trimethyl-1,2-dihydroquinoline], with 94%; and `COc1cc(OC(=O)c2cccnc2)ccc1-c1ccc2c(c1COC(=O)c1ccc(C)cc1)C(C)=CC(C)(C)N2` [Compound 1-133, 5-(4-Methylbenzoyloxymethyl)-6-[2-methoxy-4-(pyridin-3-ylcarbonyloxy)phenyl]-2,2,4-trimethyl-1,2-dihydroquinoline], with 74%. Then `CCS(=O)(=O)Oc1ccc(-c2ccc3c(c2COC(=O)c2ccc(C)s2)C(C)=CC(C)(C)N3)c(OC)c1` [Compound 4-32, 6-(4-Ethylsulfonyloxy-2-methoxyphenyl)-5-(5-methylthiophen-2-ylcarbonyloxymethyl)-2,2,4-trimethyl-1,2-dihydroquinoline], with 77%; and `CCCS(=O)(=O)Oc1ccc(-c2ccc3c(c2COc2cc([N+](=O)[O-])ccc2C)C(C)=CC(C)(C)N3)c(OC)c1` [Compound 4-12, 6-(2-Methoxy-4-propylsulfonyloxyphenyl)-5-(2-methyl-5-nitrophenoxymethyl)-2,2,4-trimethyl-1,2-dihydroquinoline], with 77%; and `COc1cc(OC(=O)c2ccncc2)ccc1-c1ccc2c(c1COC(=O)c1ccc(C)s1)C(C)=CC(C)(C)N2` [Compound 1-156, 6-[2-Methoxy-4-(pyridin-4-ylcarbonyloxy)phenyl]-5-(5-methylthiophen-2-ylcarbonyloxymethyl)-2,2,4-trimethyl-1,2-dihydroquinoline], with 90%. Then `COc1ccccc1NCc1c(-c2ccc(OC(=O)c3ccccc3F)cc2OC)ccc2c1C(C)=CC(C)(C)N2` [Compound 1-101, 6-[4-(2-Fluorobenzoyloxy)-2-methoxyphenyl]-5-(2-methoxyphenylaminomethyl)-2,2,4-trimethyl-1,2-dihydroquinoline], with 81%. As for `COc1cc(OC(=O)c2ccccc2[N+](=O)[O-])ccc1-c1ccc2c(c1COC(=O)c1ccc(C)s1)C(C)=CC(C)(C)N2` [Compound 1-170, 6-[2-Methoxy-4-(2-nitrobenzoyloxy)phenyl]-5-(5-methylthiophen-2-ylcarbonyloxymethyl)-2,2,4-trimethyl-1,2-dihydroquinoline], the Emax was determined as 77%. As for `COC(=O)c1cccc(C(=O)Oc2ccc(-c3ccc4c(c3CNc3ccccc3OC)C(C)=CC(C)(C)N4)c(OC)c2)c1` [Compound 1-107, 6-[2-Methoxy-4-(3-methoxycarbonylbenzoyloxy)phenyl]-5-(2-methoxyphenylaminomethyl)-2,2,4-trimethyl-l,2-dihydroquinoline], the Emax stood at 85%. Then `COc1cc(OC(=O)c2ccc(C)o2)ccc1-c1ccc2c(c1COc1cc(F)ccc1C)C(C)=CC(C)(C)N2` [Compound 1-48, 5-(5-Fluoro-2-methylphenoxymethyl)-6-[2-methoxy-4-(5-methylfuran-2-ylcarbonyloxy)phenyl]-2,2,4-trimethyl-1,2-dihydroquinoline], with 73%; and `COc1cc(OC(=O)c2ccoc2)ccc1-c1ccc2c(c1COC(=O)c1ccc(C)s1)C(C)=CC(C)(C)N2` [Compound 1-148, 6-[4-(Furan-3-ylcarbonyloxy)-2-methoxyphenyl]-5-(5-methylthiophen-2-ylcarbonyloxymethyl)-2,2,4-trimethyl-1,2-dihydroquinoline], with 86%; and `CCS(=O)(=O)Oc1ccc(-c2ccc3c(c2COc2cc(F)ccc2C)C(C)=CC(C)(C)N3)c(OC)c1` [Compound 4-4, 6-(4-Ethylsulfonyloxy-2-methoxyphenyl)-5-(5-fluoro-2-methylphenoxymethyl)-2,2,4-trimethyl-1,2-dihydroquinoline], with 89%.

Regarding `COc1cc(OC(=O)c2ccccc2)ccc1-c1ccc2c(c1COC(=O)c1ccc(C)s1)C(C)=CC(C)(C)N2` [Compound 1-142, 6-(4-Benzoyloxy-2-methoxyphenyl)-5-(5-methylthiophen-2-ylcarbonyloxymethyl)-2,2,4-trimethyl-1,2-dihydroquinoline], the Emax amounted to 97%. Then `COc1cc(OC(=O)c2ccc(C)nc2)ccc1-c1ccc2c(c1COC(=O)c1ccc(C)s1)C(C)=CC(C)(C)N2` [Compound 1-128, 6-[2-Methoxy-4-(6-methylpyridin-3-ylcarbonyloxy)phenyl]-5-(5-methylthiophen-2-ylcarbonyloxymethyl)-2,2,4-trimethyl-1,2-dihydroquinoline], with 79%.

For orientation: Emax means the greatest response seen or fitted, relative to the assay's reference.
